Measured values published in US11040981B2, “Pyrrolotriazine compounds and methods of inhibiting TAM kinases” (Syros Pharmaceuticals, Inc., priority 2017, dated 2021).

Columns and labels:
AXL = molecular target: T1, AXL (Homo sapiens, UniProt P30530); assay: TR-FRET kinase activity assay, AXL; type: biochemical; conditions: ATP at Km, 60 minutes
T1 sequence (P30530 26-894): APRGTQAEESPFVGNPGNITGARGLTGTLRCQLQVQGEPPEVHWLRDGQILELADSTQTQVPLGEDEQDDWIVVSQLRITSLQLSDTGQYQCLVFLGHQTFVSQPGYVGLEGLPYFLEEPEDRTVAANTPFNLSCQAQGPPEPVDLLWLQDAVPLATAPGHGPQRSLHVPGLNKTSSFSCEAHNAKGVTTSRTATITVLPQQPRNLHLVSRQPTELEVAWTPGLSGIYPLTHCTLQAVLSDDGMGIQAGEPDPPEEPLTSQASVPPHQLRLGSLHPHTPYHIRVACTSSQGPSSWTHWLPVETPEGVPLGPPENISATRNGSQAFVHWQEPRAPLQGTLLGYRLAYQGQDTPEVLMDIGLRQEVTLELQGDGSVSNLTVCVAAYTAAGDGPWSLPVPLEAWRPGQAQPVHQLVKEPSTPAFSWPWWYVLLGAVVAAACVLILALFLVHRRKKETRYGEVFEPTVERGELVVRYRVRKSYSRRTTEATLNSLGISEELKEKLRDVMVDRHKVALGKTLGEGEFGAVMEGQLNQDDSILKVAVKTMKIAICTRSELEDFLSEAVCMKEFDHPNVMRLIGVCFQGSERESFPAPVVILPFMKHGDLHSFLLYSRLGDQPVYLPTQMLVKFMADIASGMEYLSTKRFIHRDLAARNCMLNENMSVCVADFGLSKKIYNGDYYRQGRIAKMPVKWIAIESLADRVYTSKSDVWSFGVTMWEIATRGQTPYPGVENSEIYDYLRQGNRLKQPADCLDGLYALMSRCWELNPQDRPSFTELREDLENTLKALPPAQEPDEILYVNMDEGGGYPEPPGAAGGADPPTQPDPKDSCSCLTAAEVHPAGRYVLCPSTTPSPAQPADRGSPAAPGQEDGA
Description: (§1) IC50 values for compound inhibition of AXL, FLT3, MERTK and TYRO3 activity were determined by using a TR-FRET activity assay. A polypeptide substrate with a fluorescent label is phosphorylated on a tyrosine by each enzyme, where the now phosphorylated product is bound by a Europium-labeled antibody specific to that phosphorylation site. The proximity between the antibody and the substrate gives a signal known as TR-FRET. As the enzyme is inhibited by compound, less phosphorylated peptide product is made causing a decrease in overall signal.
(§2) Activity assays were performed in a 384-well, small volume, black microplates in an active enzyme volume of 10 μL and final developed volume of 20 μL. Final assay conditions are 50 mM HEPES pH 7.5, 10 mM MgCl2, 1 mM EGTA, 0.01% Brij 35 and 1 mM DTT all at RT. Enzyme, substrate labeled peptide and compound are mixed, and then the reaction is initiated with the addition of ATP at Km concentration for each enzyme. The reaction is allowed to run 60 minutes and then quenched with a 12.5 mM EDTA (ethylenediamine tetraacetic acid) solution. The plate is then developed with the addition of Europium labeled antibody for a final volume of 20 μL and is then incubated for 30 minutes in darkness. Plates are read in a Pherastar plate reader. Data is analyzed in GraphPad PRISM.
(§3) The results of these assays are shown in Table 1, below, wherein “No.” designates compound number (FIG. 1); “A” represents a value of ≤100 nM; “B” a value of >100 nM and ≤1 μM; “C” a value of >1 μM and ≤10 μM; “D” a value of >10 μM; “ND” is not determined. The ratio of Mer to FLT3 is calculated as follows: FLT3 IC50/Mer IC50. “+” represents a ratio of >2.0 and <10; “++” represents a ratio of between 10 and 100; and “+++” represents a ratio of >100.

FLT3 = molecular target: T2, FLT3 (Homo sapiens, UniProt P36888); assay: TR-FRET kinase activity assay, FLT3; type: biochemical; conditions: ATP at Km, 60 minutes
T2 sequence (P36888 27-993): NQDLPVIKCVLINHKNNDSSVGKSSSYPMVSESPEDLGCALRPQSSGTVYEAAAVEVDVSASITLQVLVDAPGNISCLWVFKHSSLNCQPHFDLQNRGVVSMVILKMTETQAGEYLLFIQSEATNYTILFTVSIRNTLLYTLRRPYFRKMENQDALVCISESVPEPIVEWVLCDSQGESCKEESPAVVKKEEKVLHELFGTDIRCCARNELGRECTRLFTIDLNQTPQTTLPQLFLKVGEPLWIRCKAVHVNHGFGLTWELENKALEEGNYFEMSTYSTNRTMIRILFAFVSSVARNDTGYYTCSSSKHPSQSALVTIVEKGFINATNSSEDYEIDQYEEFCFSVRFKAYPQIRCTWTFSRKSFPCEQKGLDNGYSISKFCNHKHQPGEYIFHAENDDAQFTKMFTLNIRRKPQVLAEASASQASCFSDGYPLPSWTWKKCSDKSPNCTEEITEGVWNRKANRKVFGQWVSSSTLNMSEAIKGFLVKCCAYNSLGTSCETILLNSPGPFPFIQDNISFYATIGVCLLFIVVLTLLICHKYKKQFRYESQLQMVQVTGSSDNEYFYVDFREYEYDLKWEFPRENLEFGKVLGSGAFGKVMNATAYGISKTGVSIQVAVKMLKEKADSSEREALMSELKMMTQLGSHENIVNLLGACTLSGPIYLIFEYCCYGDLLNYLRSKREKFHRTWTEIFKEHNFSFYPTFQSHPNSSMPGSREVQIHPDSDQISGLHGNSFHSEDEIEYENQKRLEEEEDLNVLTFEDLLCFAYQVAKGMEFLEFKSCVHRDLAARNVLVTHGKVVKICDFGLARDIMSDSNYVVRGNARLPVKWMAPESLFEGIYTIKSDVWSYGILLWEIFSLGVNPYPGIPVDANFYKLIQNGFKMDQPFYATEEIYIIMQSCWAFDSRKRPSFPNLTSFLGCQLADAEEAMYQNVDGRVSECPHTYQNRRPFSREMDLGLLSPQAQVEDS
Description: as §1, §2, §3

| IC50 (AXL) [nM] | IC50 (FLT3) [nM] | Structure (SMILES) |
| --- | --- | --- |
| ≤ 100 | 100 to 1000 | COC[C@H](C)Nc1ncc2c(-c3ccc(C)nc3)cc([C@H]3CC[C@H](O)CC3)n2n1 [Compound 246] |
| ≤ 100 | 100 to 1000 | COC[C@H](C)Nc1ncc2c(-c3cnn(CC4(C#N)CC4)c3)cc([C@H]3CC[C@H](O)CC3)n2n1 [Compound 266] |
| 100 to 1000 | 100 to 1000 | CNC(=O)Cn1cc(-c2cc([C@H]3CC[C@H](O)CC3)n3nc(N[C@@H](C)COC)ncc23)cn1 [Compound 241] |
| ≤ 100 | 100 to 1000 | CCCCC[C@H](C)Nc1ncc2c([C@H]3CC[C@@H](C(=O)N4CCOCC4)CC3)cc([C@H]3CC[C@H](O)CC3)n2n1 [Compound 109, ((cis)-4-(2-((S)-heptan-2-ylamino)-7-((trans)-4-hydroxycyclohexyl)pyrrolo[2,1-f][1,2,4]triazin-5-yl)cyclohexyl)(morpholino)methanone] |
| 100 to 1000 | 1000 to 10000 | COC[C@H](C)Nc1ncc2c(-c3cncc(S(C)(=O)=O)c3)cc([C@H]3CC[C@H](O)CC3)n2n1 [Compound 194] |
| ≤ 100 | 100 to 1000 | COC[C@H](C)Nc1ncc2c(-c3cnn(CCC#N)c3)cc([C@H]3CC[C@H](O)CC3)n2n1 [Compound 222] |
| 1000 to 10000 | 1000 to 10000 | C[C@H](Nc1ncc2c(-c3ccc(CN4CCOCC4)cc3)cc([C@H]3CC[C@H](O)CC3)n2n1)[C@@H]1CCCO1 [Compound 205] |
| ≤ 100 | 100 to 1000 | COC[C@H](C)Nc1ncc2c(-c3cnn([C@H]4CCOC4)c3)cc([C@H]3CC[C@H](O)CC3)n2n1 [Compound 243] |
| 100 to 1000 | 100 to 1000 | COC[C@H](C)Nc1ncc2c(-c3ccc(N4CCOCC4)nc3)cc([C@H]3CC[C@H](O)CC3)n2n1 [Compound 254] |
| 100 to 1000 | 1000 to 10000 | COC[C@H](C)Nc1ncc2c(-c3cn(C[Si](C)(C)C)nn3)cc([C@H]3CC[C@H](O)CC3)n2n1 [Compound 248] |
| 100 to 1000 | 1000 to 10000 | COC[C@H](C)Nc1ncc2c(-c3cncc(C(=O)N4CCCC4)c3)cc([C@H]3CC[C@H](O)CC3)n2n1 [Compound 232] |
| 100 to 1000 | 1000 to 10000 | COC[C@H](C)Nc1ncc2c(-c3cn(C)nn3)cc([C@H]3CC[C@H](O)CC3)n2n1 [Compound 250, (trans)-4-(2-(((S)-1-methoxypropan-2-yl)amino)-5-(1-methyl-1H-1,2,3-triazol-4-yl)pyrrolo[2,1-f][1,2,4]triazin-7-yl)cyclohexanol] |
| ≤ 100 | 100 to 1000 | COCC(C)Nc1ncc2c(-c3cccc(CN4CCC(F)C4)c3)cc(C3CCC(O)CC3)n2n1 (stereo not drawn) [Compound 225] |
| 100 to 1000 | 1000 to 10000 | CNC(=O)c1cncc(-c2cc([C@H]3CC[C@H](O)CC3)n3nc(N[C@@H](C)COC)ncc23)c1 [Compound 245] |
| 100 to 1000 | 1000 to 10000 | COC[C@H](C)Nc1ncc2c(-c3cnc(C)o3)cc([C@H]3CC[C@H](O)CC3)n2n1 [Compound 261] |
| ≤ 100 | 100 to 1000 | COCC(C)Nc1ncc2c(-c3cnn(C4COC4)c3)cc(C3CCC(O)CC3)n2n1 (stereo not drawn) [Compound 221] |

| IC50 (AXL) [nM] | IC50 (FLT3) [nM] | Structure (SMILES) |
| --- | --- | --- |
| ≤ 100 | 100 to 1000 | COC[C@H](C)Nc1ncc2c(-c3ccc4c(c3)NC(=O)C4)cc([C@H]3CC[C@H](O)CC3)n2n1 [Compound 249] |
| 100 to 1000 | 100 to 1000 | COC[C@H](C)Nc1ncc2c(-c3ccc4c(c3)CNC4=O)cc([C@H]3CC[C@H](O)CC3)n2n1 [Compound 252] |
| 1000 to 10000 | 1000 to 10000 | COC[C@H](C)Nc1ncc2c(-c3cc(C)ccn3)cc([C@H]3CC[C@H](O)CC3)n2n1 [Compound 257] |
| ≤ 100 | 100 to 1000 | COC[C@H](C)Nc1ncc2c(-c3cnn(Cc4cccnc4)c3)cc([C@H]3CC[C@H](O)CC3)n2n1 [Compound 220] |
| 100 to 1000 | 100 to 1000 | CCCCC[C@H](C)Nc1ncc2c(-c3ccc(CN4CCN(C)CC4)cc3)cc([C@H]3CC[C@@H](O)CC3)n2n1 [Compound 105] |
| 100 to 1000 | 1000 to 10000 | CC(C)OC[C@H](C)Nc1ncc2c(-c3ccc(CN4CCOCC4)cc3)cc([C@H]3CC[C@H](O)CC3)n2n1 [Compound 214] |
| ≤ 100 | 100 to 1000 | COC[C@H](C)Nc1ncc2c(-c3cnn(C(F)F)c3)cc([C@H]3CC[C@H](O)CC3)n2n1 [Compound 207] |
| 100 to 1000 | 1000 to 10000 | COC[C@H](C)Nc1ncc2c(-c3cncc(C#N)c3)cc([C@H]3CC[C@H](O)CC3)n2n1 [Compound 201] |
| 100 to 1000 | 1000 to 10000 | COC[C@H](C)Nc1ncc2c(-c3ccn(C)n3)cc([C@H]3CC[C@H](O)CC3)n2n1 [Compound 208] |
| 100 to 1000 | 100 to 1000 | COC[C@H](C)Nc1ncc2c(-c3ccc4c(c3)CC(=O)N4)cc([C@H]3CC[C@H](O)CC3)n2n1 [Compound 251] |
| ≤ 100 | 100 to 1000 | CCCCCC(C)Nc1ncc2c(C3=CCC(C(=O)N4CCOCC4)CC3)cc(C3CCC(O)CC3)n2n1 (mixture of isomers) [Compound 110] |
| 100 to 1000 | 100 to 1000 | CC(Nc1ncc2c(-c3ccc(CN4CCOCC4)cc3)cc(C3CCC(O)CC3)n2n1)C(F)(F)F (stereo not drawn) [Compound 202] |
| 100 to 1000 | 100 to 1000 | COC[C@H](C)Nc1ncc2c(-c3ccc(C(=O)N4CCN(C)CC4)nc3)cc([C@H]3CC[C@H](O)CC3)n2n1 [Compound 226] |
| 100 to 1000 | 100 to 1000 | COC[C@H](C)Nc1ncc2c(-c3ccc(CN4CCOCC4)nc3)cc([C@H]3CC[C@H](O)CC3)n2n1 [Compound 230] |
| 100 to 1000 | 1000 to 10000 | COC[C@H](C)Nc1ncc2c(-c3ccc(C(=O)N4CCOCC4)nc3)cc([C@H]3CC[C@H](O)CC3)n2n1 [Compound 227] |
| 100 to 1000 | 100 to 1000 | Cc1cc(-c2cc([C@H]3CC[C@H](O)CC3)n3nc(N[C@@H](C)CC(F)(F)F)ncc23)cnn1 [Compound 268] |

| Structure (SMILES) | IC50 (AXL) [nM] | IC50 (FLT3) [nM] |
| --- | --- | --- |
| COC[C@H](C)Nc1ncc2c(-c3cccc(CN4CCC(F)(F)C4)c3)cc([C@H]3CC[C@H](O)CC3)n2n1 [Compound 223] | 100 to 1000 | 1000 to 10000 |
